Measurements from publication PMC4428838, “Optimization of Invasion-Specific Effects of Betulin Derivatives on Prostate Cancer Cells through Lead Development” (PLoS ONE, 2015).

test system: PC-3 cells; assay: Primary 3D screen in Matrigel ECM, morphometric image analysis (AMIDA) of invasion, growth and cell death; format: cell-based; settings: PC-3 in 3D Matrigel, 6 days treatment, 0.03-1 μM
Method: Three standard of care compounds widely used against PrCa were added as controls; namely, the androgen receptor antagonist enzalutamide (MDV3100), the C17α-hydroxylase/C17,20-lyase inhibitor abiraterone (Zytiga), and the classic mitotic inhibitor paclitaxel. Treatments started at day 4, when well-differentiated round acini were established.
The live 3D cell cultures were then stained with reactive dyes Calcein AM to detect living, and ethidium homodimer to detect dead cells. Images (Fig 4A) were acquired with confocal microscope and image data were analyzed with the AMIDA software. The principles of morphometric image analysis are briefly outlined in S2 Fig.
Fig 4 Primary 3D screen. PC-3 cells were cultured in 3D Matrigel ECM for 4 days and treated for 6 days with 25 betulin derivatives (from 2D high throughput screens), DMSO/vehicle control, and three reference compounds. A) Representative maximum intensity projections of confocal microscope stack images for selected compound treatments at 300 nM concentration (5× objective, scale 100 μm). B) Three graphs showing the relative impact on three morphometric parameters for 7 betulin derivatives, DMSO control, and one control compound (paclitaxel). […] C) Hierarchical clustering was done using three morphological parameters derived from PC3 organoids: spheroid size (area), complexity and the number of dead cells. D) Wound healing curves of the two betulin derivatives 4 and 20, highlighting the 50% cut-off level (orange dashed line).
Next, statistical analyses were performed to interpret the complex image data (Fig 4B and 4C). For simplicity, we focused on only three, basic morphologic parameters from the multiparametric AMIDA readout (Fig 4B): 1) Area (indicating growth of organoids), 2) structural Complexity (as a measure of the intensity of invasion), and 3) Relative Area of dead cells within organoids (red signal as a measure of cytoxicity or apoptosis). Area (Size of organoids; Fig 4B, upper panel) was measured as the number of pixels within a segmented structure. […] Shape Complexity (Fig 4B, middle panel) was obtained using the structure size (area) and perimeter (number of border pixels). The more regular the shape of an organoid, the closer it is to a perfect circle, thus minimizing the perimeter relative to object size. […] Deviations from this average (residuals) were interpreted as a measure for the shape complexity of organoids. As a logical lower limit for this measure (represented by a perfect circle), we adjusted the intercept (height level) of the regression line to render all returned residuals as positive numbers.
All 3D cultures were done in growth factor-free Matrigel Basement-membrane Matrix (Corning Inc., New York, NY, USA) using 96-well Angiogenesis μ-plates (ibidi GmbH, Munich, Germany) as described before.[38] “Sandwich” assays in short: bottom wells of cooled Angiogenesis plates were filled with 10 μL 4 mg/mL Matrigel, centrifuged for 20 min 200 g and incubated at 37°C temperature for approximately 30–60 min or until the ECM had polymerized. 1,000–1,500 cells were mixed in 2 mg/mL ECM-medium, and 20 μL of cell suspension was added in each well. The plates were centrifuged for 10 min at 100 g, or until the cells had settled on top of the lower ECM. Finally, the outer wells and side reservoirs were filled with water for humidification, and the culture plates placed into the incubator for 3–4 h or overnight. The following day, 60 μL of cell culture medium were added; refreshed every third day by carefully aspirating the medium.

| Structure (SMILES) | anti-invasive effects in 3D culture (in words) |
| --- | --- |
| C=C(C)[C@@H]1CC[C@]2(C(=O)N3CCCCC3)CC[C@]3(C)C(CCC4[C@@]5(C)Cc6nccnc6C(C)(C)C5CC[C@]43C)C12 (stereo partly shown) [Compound 17] | inactive |
| C=C(C)[C@@H]1CC[C@]2(COC(C)=O)CC[C@]3(C)C(CCC4[C@@]5(C)Cc6cnoc6C(C)(C)C5CC[C@]43C)C12 (stereo partly shown) [Compound 8] | negligible effects on the invasive phenotype |
| C=C(C)[C@@H]1CC[C@]2(C(=O)N3CCCC3)CC[C@]3(C)C(CCC4[C@@]5(C)CCC(=O)C(C)(C)C5CC[C@]43C)C12 (stereo partly shown) [Compound 11] | None of these compounds showed significant anti-invasive effects |
| C=C(C)[C@@H]1CC[C@]2(CO)CC[C@]3(C)C(CCC4[C@@]5(C)Cc6cnoc6C(C)(C)C5CC[C@]43C)C12 (stereo partly shown) [Compound 10] | negligible effects on the invasive phenotype |
| C=C(C)[C@@H]1CC[C@]2(C=O)CC[C@]3(C)C(CCC4[C@@]5(C)Cc6cnoc6C(C)(C)C5CC[C@]43C)C12 (stereo partly shown) [Compound 7] | negligible effects on the invasive phenotype |
| C=C(C)[C@@H]1CC[C@]2(C(N)=O)CC[C@]3(C)C(CCC4[C@@]5(C)Cc6cnoc6C(C)(C)C5CC[C@]43C)C12 (stereo partly shown) [Compound 9] | negligible effects on the invasive phenotype |
| C=C(C)[C@@H]1CC[C@]2(C#N)CC[C@]3(C)C(CCC4[C@@]5(C)Cc6nccnc6C(C)(C)C5CC[C@]43C)C12 (stereo partly shown) [Compound 18, Lupa-2,20(29)-dieno[2,3-b]pyrazino-28-nitrile] | inactive |
| C=C(C)[C@@H]1CC[C@]2(C(=O)N3CCOCC3)CC[C@]3(C)C(CCC4[C@@]5(C)CCC(=O)C(C)(C)C5CC[C@]43C)C12 (stereo partly shown) [Compound 14] | None of these compounds showed significant anti-invasive effects |
| C=C(C)[C@@H]1CC[C@]2(C(=O)N3CCCCC3)CC[C@]3(C)C(CCC4[C@@]5(C)CCC(=O)C(C)(C)C5CC[C@]43C)C12 (stereo partly shown) [Compound 13] | None of these compounds showed significant anti-invasive effects |
| C=C(C)[C@@H]1CC[C@]2(C(=O)NCCC)CC[C@]3(C)C(CCC4[C@@]5(C)CCC(=O)C(C)(C)C5CC[C@]43C)C12 (stereo partly shown) [Compound 12] | None of these compounds showed significant anti-invasive effects |
